{"source": "ChEMBL document CHEMBL5137134", "about": "“Developing the Natural Prenylflavone Artocarpin from Artocarpus hirsutus as a Potential Lead Targeting Pathogenic, Multidrug-Resistant Staphylococcus aureus, Persisters and Biofilms with No Detectable Resistance” (J Nat Prod, 2022)", "key": {"[1]": {"tested_on": "Staphylococcus aureus", "test": "Synergistic antibacterial activity against Staphylococcus aureus ATCC 29213 assessed as reduction in bacterial growth incubated for 24 hrs in presence of artocarpin by checkerboard method", "format": "functional"}, "[2]": {"tested_on": "Staphylococcus aureus", "test": "microbe, parasite or virus in culture", "details": "ATCC 29213", "description": "Antibacterial activity against Staphylococcus aureus ATCC 29213 assessed as reduction in bacterial growth incubated for 16 to 18 hrs by broth microdilution method"}, "[3]": {"tested_on": "Staphylococcus aureus", "test": "Bactericidal activity against Staphylococcus aureus ATCC 29213 assessed as decrease in intracellular ATP level at 2.5 times MIC after 1 hr by ATP bioluminescence assay", "format": "functional, organism-based"}, "[4]": {"tested_on": "Staphylococcus aureus", "test": "Bactericidal activity against Staphylococcus aureus ATCC 29213 assessed as increase in extracellular ATP level at 2.5 times MIC after 1 hr by ATP bioluminescence assay", "format": "functional, organism-based"}, "[5]": {"tested_on": "Acinetobacter baumannii", "test": "Antibacterial activity against Acinetobacter baumannii BAA 1605 assessed as reduction in bacterial growth incubated for 16 to 18 hrs by broth microdilution method", "format": "functional", "details": "time 16-18 hrs"}, "[6]": {"tested_on": "Escherichia coli", "test": "Antibacterial activity against Escherichia coli ATCC 25922 assessed as reduction in bacterial growth incubated for 16 to 18 hrs by broth microdilution method", "format": "functional", "details": "time 16-18 hrs"}, "[7]": {"tested_on": "Staphylococcus aureus", "test": "Antibacterial activity against Staphylococcus aureus ATCC 29213 infected in Swiss mouse skin infection model assessed as reduction in skin bacterial load at 2 % dose administered twice daily for 4 days", "format": "functional", "details": "time 4 day"}, "[8]": {"tested_on": "Klebsiella pneumoniae", "test": "Antibacterial activity against Klebsiella pneumoniae BAA 1705 assessed as reduction in bacterial growth incubated for 16 to 18 hrs by broth microdilution method", "format": "functional", "details": "time 16-18 hrs"}, "[9]": {"tested_on": "Pseudomonas aeruginosa", "test": "Antibacterial activity against Pseudomonas aeruginosa ATCC 27853 assessed as reduction in bacterial growth incubated for 16 to 18 hrs by broth microdilution method", "format": "functional", "details": "time 16-18 hrs"}, "[10]": {"tested_on": "Staphylococcus aureus", "test": "Post antibiotic effect against Staphylococcus aureus ATCC 29213 at 1 time MIC incubated for 1 hr followed by replacement with drug free medium and measured every 1 hr (reference value: 0 hr)", "format": "functional"}, "[11]": {"tested_on": "Staphylococcus aureus", "test": "Antibacterial activity against Staphylococcus aureus ATCC 29213 infected in mouse J774A.1 cells assessed as reduction in intracellular bacterial cells at 5 times MIC incubated for 24 hrs followed by re-plating on TSA plate and measured after 18 to 24 hrs", "format": "functional"}, "[12]": {"tested_on": "Enterococcus", "test": "Antibacterial activity against Enterococcus NR 31903 assessed as reduction in bacterial growth incubated for 16 to 18 hrs by broth microdilution method", "format": "functional", "details": "time 16-18 hrs"}, "[13]": {"tested_on": "Staphylococcus aureus", "test": "Post antibiotic effect against Staphylococcus aureus ATCC 29213 assessed as time required for 1 log10 increase in CFU at 10 times MIC incubated for 1 hr followed by replacement with drug free medium and measured every 1 hr (reference value: 2 hrs)", "format": "functional"}, "[14]": {"test": "Induction of resistance in Staphylococcus aureus ATCC 29213 assessed as increase in MIC treated over 35 serial passages by resistant development assay", "format": "functional"}, "[15]": {"tested_on": "Staphylococcus aureus", "test": "Post antibiotic effect against Staphylococcus aureus ATCC 29213 at 10 times MIC incubated for 1 hr followed by replacement with drug free medium and measured every 1 hr (reference value: 0 hr)", "format": "functional"}, "[16]": {"tested_on": "Staphylococcus aureus", "test": "Antibiofilm activity against Staphylococcus aureus ATCC 29213 assessed as reduction in preformed bacterial biofilm mass at 1 time MIC incubated for 24 hrs by crystal violet staining based microtiter plate reader assay", "format": "functional", "parameters": "scale not given: the % may be the effect or the level left"}, "[17]": {"tested_on": "Staphylococcus aureus", "test": "Post antibiotic effect against Staphylococcus aureus ATCC 29213 assessed as time required for 1 log10 increase in CFU at 1 time MIC incubated for 1 hr followed by replacement with drug free medium and measured every 1 hr (reference value: 2 hrs)", "format": "functional"}, "[18]": {"tested_on": "Staphylococcus aureus", "test": "Antibacterial activity against Staphylococcus aureus ATCC 29213 at 1 time MIC after 24 hrs by time kill assay", "format": "functional"}, "[19]": {"tested_on": "Escherichia coli", "test": "Antibacterial activity against Escherichia coli ATCC 25922 assessed as reduction in bacterial growth incubated for 16 to 18 hrs in presence of PMBN by broth microdilution method", "format": "functional", "details": "time 16-18 hrs"}, "[20]": {"tested_on": "Acinetobacter baumannii", "test": "Antibacterial activity against Acinetobacter baumannii BAA 1605 assessed as reduction in bacterial growth incubated for 16 to 18 hrs in presence of PMBN by broth microdilution method", "format": "functional", "details": "time 16-18 hrs"}}, "note": "Active and inactive are the calls of the source. The calls are words filed in the database; no cut-off is given here. Peptide text beside a SMILES is read from it."}
{"molecule": "CCCCCCCCCC(=O)N[C@@H](Cc1c[nH]c2ccccc12)C(=O)N[C@H](CC(N)=O)C(=O)N[C@@H](CC(=O)O)C(=O)N[C@@H]1C(=O)NCC(=O)N[C@@H](CCCN)C(=O)N[C@@H](CC(=O)O)C(=O)N[C@H](C)C(=O)N[C@@H](CC(=O)O)C(=O)NCC(=O)N[C@H](CO)C(=O)N[C@@H]([C@H](C)CC(=O)O)C(=O)N[C@@H](CC(=O)c2ccccc2N)C(=O)O[C@@H]1C", "values": [{"measurement": "MIC", "setting": "[1]", "result": 0.5, "unit": "µg/mL"}, {"measurement": "MIC", "setting": "[2]", "result": 1, "unit": "µg/mL"}]}
{"molecule": "CC[C@H](C)[C@H](NC(=O)CN)C(=O)NCC(=O)N[C@@H](C)C(=O)N[C@H](C(=O)N[C@@H](CC(C)C)C(=O)N[C@@H](CCCCN)C(=O)N[C@H](C(=O)N[C@@H](CC(C)C)C(=O)N[C@H](C(=O)N[C@H](C(=O)NCC(=O)N[C@@H](CC(C)C)C(=O)N1CCC[C@H]1C(=O)N[C@@H](C)C(=O)N[C@@H](CC(C)C)C(=O)N[C@H](C(=O)N[C@@H](CO)C(=O)N[C@@H](Cc1c[nH]c2ccccc12)C(=O)N[C@H](C(=O)N[C@@H](CCCCN)C(=O)N[C@@H](CCCNC(=N)N)C(=O)N[C@@H](CCCCN)C(=O)N[C@@H](CCCNC(=N)N)C(=O)N[C@@H](CCC(N)=O)C(=O)N[C@@H](CCC(N)=O)C(N)=O)[C@@H](C)CC)[C@@H](C)CC)[C@@H](C)O)[C@@H](C)O)C(C)C)C(C)C", "values": [{"measurement": "Activity", "setting": "[3]", "result": "Active"}, {"measurement": "Activity", "setting": "[4]", "result": "Active"}]}
{"molecule": "CC[C@H](C)CCCCC(=O)N[C@@H](CCN)C(=O)N[C@H](C(=O)N[C@@H](CCN)C(=O)N[C@H]1CCNC(=O)[C@H]([C@@H](C)O)NC(=O)[C@H](CCN)NC(=O)[C@H](CCN)NC(=O)[C@H](CC(C)C)NC(=O)[C@@H](Cc2ccccc2)NC(=O)[C@H](CCN)NC1=O)[C@@H](C)O", "note": "(HELM PEPTIDE1{[CC[C@H](C)CCCCC(=O)[*:2]].[Dab].T.[Dab].[Dab].[Dab].[dF].L.[Dab].[Dab].T}$PEPTIDE1,PEPTIDE1,5:R3-11:R2$$$V2.0)", "values": [{"measurement": "MIC", "setting": "[5]", "result": "> 64", "unit": "µg/mL"}, {"measurement": "MIC", "setting": "[6]", "result": "> 64", "unit": "µg/mL"}]}
{"molecule": "CC(C)(O/N=C(\\C(=O)N[C@@H]1C(=O)N2C(C(=O)[O-])=C(C[n+]3ccccc3)CS[C@H]12)c1csc(N)n1)C(=O)O", "note": "[CEFTAZIDIME]", "values": [{"measurement": "MIC", "setting": "[1]", "result": 16, "unit": "µg/mL"}, {"measurement": "MIC", "setting": "[2]", "result": 16, "unit": "µg/mL"}]}
{"molecule": "CC(=O)O[C@H]1C[C@@]2(C)[C@@H](C[C@@H](O)[C@H]3[C@@]4(C)CC[C@@H](O)[C@@H](C)[C@@H]4CC[C@@]32C)/C1=C(\\CCC=C(C)C)C(=O)O", "note": "[FUSIDIC ACID]", "values": [{"measurement": "Activity", "setting": "[7]", "result": 1.8, "unit": "log10CFU/g"}]}
{"molecule": "C[C@H]1COc2c(N3CCN(C)CC3)c(F)cc3c(=O)c(C(=O)O)cn1c23.C[C@H]1COc2c(N3CCN(C)CC3)c(F)cc3c(=O)c(C(=O)O)cn1c23.O", "note": "[LEVOFLOXACIN]", "values": [{"measurement": "MIC", "setting": "[8]", "result": 64, "unit": "µg/mL"}, {"measurement": "MIC", "setting": "[9]", "result": 0.5, "unit": "µg/mL"}, {"measurement": "PAE", "setting": "[10]", "result": 0.5, "unit": "h"}, {"measurement": "MIC", "setting": "[1]", "result": 0.25, "unit": "µg/mL"}, {"measurement": "Activity", "setting": "[11]", "result": 0.45, "unit": "log10CFU/ml"}, {"measurement": "MIC", "setting": "[12]", "result": "> 64", "unit": "µg/mL"}, {"measurement": "Time", "setting": "[13]", "result": 3.5, "unit": "h"}, {"measurement": "MIC", "setting": "[14]", "result": 32, "unit": "µg/mL"}, {"measurement": "MIC", "setting": "[2]", "result": 0.125, "unit": "µg/mL"}, {"measurement": "PAE", "setting": "[15]", "result": 1.5, "unit": "h"}, {"measurement": "Activity", "setting": "[16]", "result": 15, "unit": "%"}, {"measurement": "Time", "setting": "[17]", "result": 2.5, "unit": "h"}]}
{"molecule": "CC(=O)NC[C@H]1CN(c2ccc(N3CCOCC3)c(F)c2)C(=O)O1", "note": "[LINEZOLID]", "values": [{"measurement": "Activity", "setting": "[18]", "result": 1.6, "unit": "log10CFU/ml"}, {"measurement": "MIC", "setting": "[1]", "result": 1, "unit": "µg/mL"}]}
{"molecule": "C[C@@H](O)[C@H]1C(=O)N2C(C(=O)O)=C(S[C@@H]3CN[C@H](C(=O)N(C)C)C3)[C@H](C)[C@H]12", "note": "[MEROPENEM]", "values": [{"measurement": "MIC", "setting": "[1]", "result": 2, "unit": "µg/mL"}, {"measurement": "MIC", "setting": "[2]", "result": 1, "unit": "µg/mL"}]}
{"molecule": "CN(C)c1ccc(O)c2c1C[C@H]1C[C@H]3[C@H](N(C)C)C(O)=C(C(N)=O)C(=O)[C@@]3(O)C(O)=C1C2=O", "note": "[MINOCYCLINE]", "values": [{"measurement": "MIC", "setting": "[1]", "result": 0.125, "unit": "µg/mL"}, {"measurement": "MIC", "setting": "[2]", "result": 0.25, "unit": "µg/mL"}]}
{"molecule": "CO[C@H]1/C=C/O[C@@]2(C)Oc3c(C)c(O)c4c(O)c(c(/C=N/N5CCN(C)CC5)c(O)c4c3C2=O)NC(=O)/C(C)=C\\C=C\\[C@H](C)[C@H](O)[C@@H](C)[C@@H](O)[C@@H](C)[C@H](OC(C)=O)[C@@H]1C", "note": "[RIFAMPIN]", "values": [{"measurement": "MIC", "setting": "[19]", "result": 0.06, "unit": "µg/mL"}, {"measurement": "MIC", "setting": "[5]", "result": 2, "unit": "µg/mL"}, {"measurement": "MIC", "setting": "[20]", "result": 0.03, "unit": "µg/mL"}, {"measurement": "MIC", "setting": "[1]", "result": 0.0078, "unit": "µg/mL"}, {"measurement": "MIC", "setting": "[6]", "result": 8, "unit": "µg/mL"}, {"measurement": "MIC", "setting": "[2]", "result": 0.0078, "unit": "µg/mL"}]}
{"molecule": "CN[C@H](CC(C)C)C(=O)N[C@H]1C(=O)N[C@@H](CC(N)=O)C(=O)N[C@H]2C(=O)N[C@H]3C(=O)N[C@H](C(=O)N[C@H](C(=O)O)c4cc(O)cc(O)c4-c4cc3ccc4O)[C@H](O)c3ccc(c(Cl)c3)Oc3cc2cc(c3O[C@@H]2O[C@H](CO)[C@@H](O)[C@H](O)[C@H]2O[C@H]2C[C@](C)(N)[C@H](O)[C@H](C)O2)Oc2ccc(cc2Cl)[C@H]1O", "note": "[VANCOMYCIN]", "values": [{"measurement": "MIC", "setting": "[19]", "result": 128, "unit": "µg/mL"}, {"measurement": "MIC", "setting": "[5]", "result": 256, "unit": "µg/mL"}, {"measurement": "MIC", "setting": "[20]", "result": 64, "unit": "µg/mL"}, {"measurement": "PAE", "setting": "[10]", "result": 1, "unit": "h"}, {"measurement": "Time", "setting": "[13]", "result": 3.5, "unit": "h"}, {"measurement": "MIC", "setting": "[6]", "result": 512, "unit": "µg/mL"}, {"measurement": "PAE", "setting": "[15]", "result": 1.5, "unit": "h"}, {"measurement": "Activity", "setting": "[16]", "result": 4, "unit": "%"}, {"measurement": "Time", "setting": "[17]", "result": 3, "unit": "h"}]}
{"molecule": "GENTAMICIN", "values": [{"measurement": "MIC", "setting": "[1]", "result": 0.06, "unit": "µg/mL"}]}
